Source: publication PMC3746205, “Two mixed-NH3/amine platinum (II) anticancer complexes featuring a dichloroacetate moiety in the leaving group” (Scientific Reports, 2013)
Where “and” joins values, the source holds several entries; their conditions need not be identical. Equal values may be shown once. Read-outs that look alike come from different tables or passages of the source.

Columns and labels:
A549 cells = assay: Cell apoptosis assay (Annexin-V-FITC/Propidium iodide, flow cytometry), A549; format: cell-based, human; conditions: t = 24 h, n = 3
Procedure: (§1) Human lung cancer (A549), human normal lung epithelial cell line (BEAS-2B), human stomach cancer (SGC-7901) and human ovarian cancer (SK-OV-3) were purchased from ATCC, whereas cisplatin-resistant SK-OV-3 cells (SK-OV-3/DDP) were kindly provided by Chinese Academy of Medical Sciences (Beijing, China). Cells were grown in DMEM or RPMI-1640 medium (Hyclone, USA) containing 10% fetal bovine serum. Both media were supplemented with 100 units/ml of penicillin and 100 μg/ml of streptomycin. Cells were maintained at 37°C in a humidified incubator with an atmosphere of 5% CO2. To analyze the cells for apoptosis, cells were plated and allowed to adhere overnight. Cells were treated with drugs indicated for 24 hours and then analyzed for apoptosis using Annexin-V-FITC/Propidium iodide staining. Cells were trypsinized, pelleted, washed in PBS, and resuspended in 1×binding buffer containing Annexin-V-FITC and propidium iodide (BD Pharmingen) according to the manufacturer's instructions. The samples were analyzed for the apoptosis using a FACSCalibur flow cytometer (BD Biosciences, Franklin Lakes, NJ).

[1] = test system: SGC-7901 cells (gastric carcinoma); assay: MTS cytotoxicity assay, SGC-7901; format: cell-based, human; conditions: read-out: IC50 (mean ± SD)
Procedure: (§2) Human lung cancer (A549), human normal lung epithelial cell line (BEAS-2B), human stomach cancer (SGC-7901) and human ovarian cancer (SK-OV-3) were purchased from ATCC, whereas cisplatin-resistant SK-OV-3 cells (SK-OV-3/DDP) were kindly provided by Chinese Academy of Medical Sciences (Beijing, China). Cells were grown in DMEM or RPMI-1640 medium (Hyclone, USA) containing 10% fetal bovine serum. Both media were supplemented with 100 units/ml of penicillin and 100 μg/ml of streptomycin. Cells were maintained at 37°C in a humidified incubator with an atmosphere of 5% CO2.
(§3) Cytotoxicity was determined by performing MTS assay. Briefly, 100 μl of cells suspension were seeded in 96-well cell culture plates and allowed to adhere overnight. The cells were treated with drugs for 48 hours, and then 20 μl of CellTiter 96® AQueous One Solution Reagent (Promega, Madison, USA) was added and the cells were further incubated at 37°C for 1–2 h. Cell viability was measured by reading the absorbance at a wavelength of 490 nm. Concentrations of 50% inhibition of growth (IC50) were calculated on the basis of the relative survival curve.

[2] = test system: SK-OV-3 cells (ovarian carcinoma); assay: MTS cytotoxicity assay, SK-OV-3; format: cell-based, human; conditions: read-out: IC50 (mean ± SD)
Procedure: as §2, §3

[3] = test system: BEAS-2B normal human lung bronchial epithelial cells; assay: Cell apoptosis assay (Annexin-V-FITC/Propidium iodide, flow cytometry), BEAS-2B; format: cell-based; conditions: t = 24 h, n = 3
Procedure: as §1

[4] = test system: cisplatin-resistant SK-OV-3 cells (SK-OV-3/DDP); assay: MTS cytotoxicity assay, cisplatin-resistant SK-OV-3/DDP; format: cell-based, human; conditions: for IC50: SK-OV-3/DDP cisplatin-resistant, MTS, t = 48 h, n = 3, read-out: IC50 (mean ± SD); for Resistance Index: ratio of IC50 value of resistant cells (SK-OV-3/DDP) to that of sensitive cells (SK-OV-3)
Procedure: Cross-resistance profile of the complexes 1a and 2a was evaluated. Resistance Index was defined as the ratio of IC50 value of resistant cells to that of sensitive cells. SK-OV-3 and cisplatin-resistant SK-OV-3 cells (SK-OV-3/DDP) cell lines were chosen for MTS assay because drug resistance frequently occurred in the chemotherapy of ovarian tumors. […] The results may be attributed to the synergistic effect between the platinum pharmacophores and DCA released by the hydrolysis of 1a and 2a in the cells.
as §2, §3

Hydrolysis rate by HPLC = format: physicochemical; conditions: 1:10 (v/v) solution of water and methanol, within 4 hours
Procedure: Both complexes were nearly insoluble in water or ethanol (≈0.1 mg/ml) and slightly soluble in methanol and DMSO, but soluble in polyethyleneglycol 400 which was chosen as the solvent to make the stock solutions of the complexes for the following biological testing. The hydrolysis rate of the complexes in 1:10 (v/v) solution of water and methanol determined by HPLC was less than 2% within 4 hours and the hydrolysis products were, as expected, dichloroacetate and 1b for complex 1a, or 2b for complex 2a. Complexes 1b and 2b were also synthesized for comparison in HPLC measurements as well as in biological tests. As 1b and 2b were found very soluble in water (>25 mg/ml) compared with 1a or 2a, another synthetic reaction was employed to produce the desired complexes. Accordingly complexes 1b and 2b also have two positional isomeric forms. All the complexes used in our studies were, in fact, a mixture of two isomeric forms.
An Agilent Zorbax SB-C18 column (4.6 × 250 mm, 5 μm) was used with CH3OH/H2O as the mobile phase. The flow rate was 1.0 ml/min, and the column temperature is 40°C. The detection wavelength was 238 nm and the injection volume was 10 μl.

[5] = test system: A549 cells (non-small cell lung carcinoma); assay: MTS cytotoxicity assay, A549; format: cell-based, human; conditions: read-out: IC50 (mean ± SD)
Procedure: as §2, §3

[6] = test system: BEAS-2B normal lung epithelial cells; assay: MTS cytotoxicity assay, BEAS-2B; format: cell-based, human; conditions: read-out: IC50 (mean ± SD)
Procedure: as §2, §3

Solubility in solvents = format: physicochemical
[7] = SK-OV-3 (sensitive), MTS, t = 48 h, n = 3, Table 3 cross-resistance experiment
[8] = SK-OV-3, MTS, t = 48 h, n = 3, Table 1
[9] = BEAS-2B normal cells, MTS, t = 48 h, n = 3

Q: With `N.NC1CCCC1.O=C(OC1CC2(C1)C(=O)[O][Pt][O]C2=O)C(Cl)Cl` [Complex 1a] as the compound, how does the “Apoptosis, % (mean ± SD)” value (A549 cells; A549, 12.5 μM) read?
A: 18.93% and 18.93 ± 3.83%

Q: And the “Apoptosis, % (mean ± SD)” value (A549 cells; A549, 25 μM)?
A: 26.76 ± 2.33%

Q: And the “Apoptosis, % (mean ± SD)” value (A549 cells; A549, 50 μM)?
A: 40.93 ± 9.66%

Q: What about the “Apoptosis, % (mean ± SD)” value (A549 cells; A549, 100 μM) of the same compound?
A: 67.46 ± 8.06%

Q: What about the IC50 ([1]; SGC-7901, MTS, t = 48 h, n = 3) of the same compound?
A: 21.9 ± 1.96 µM

Q: What about the IC50 [2, 7] of the same compound?
A: 17.8 ± 3.97 µM

Q: What about the IC50 [2, 8] of the same compound?
A: 18.1 ± 0.85 µM

Q: What about the “Apoptosis, % (mean ± SD)” value ([3]; 12.5 μM) of the same compound?
A: 0.71 ± 0.45%

Q: What about the “Apoptosis, % (mean ± SD)” value ([3]; 25 μM) of the same compound?
A: 1.24 ± 1.73%

Q: And the “Apoptosis, % (mean ± SD)” value ([3]; 50 μM)?
A: 1.27 ± 0.92%

Q: What about the “Apoptosis, % (mean ± SD)” value ([3]; 100 μM) of the same compound?
A: 2.88% and 2.88 ± 2.15%

Q: What about the IC50 [4] of the same compound?
A: 18.1 ± 2.41 µM

Q: What about the “Resistance Index” value [4] of the same compound?
A: ≈1

Q: And the Hydrolysis rate (Hydrolysis rate by HPLC)?
A: less than 2%

Q: And the IC50 ([5]; A549, MTS, t = 48 h, n = 3)?
A: 17.1 ± 1.55 µM

Q: What about the IC50 [6, 9] of the same compound?
A: 61.5 ± 1.5 µM

Q: With `N.NC1CCCCC1.O=C1[O][Pt][O]C(=O)C12CC(O)C2` [Complex 2b] as the compound, how does the IC50 ([1]; SGC-7901, MTS, t = 48 h, n = 3) read?
A: 69.5 ± 2.31 µM

Q: What about the IC50 [2, 8] of the same compound?
A: 78.2 ± 1.85 µM

Q: And the Solubility in water (Solubility in solvents)?
A: > 25 mg/mL

Q: What about the IC50 ([5]; A549, MTS, t = 48 h, n = 3) of the same compound?
A: 71.5 ± 5.21 µM

Q: And the IC50 [6, 9]?
A: 75 ± 4.83 µM

Q: For `N.NC1CCCCC1.O=C(OC1CC2(C1)C(=O)[O][Pt][O]C2=O)C(Cl)Cl` [Complex 2a], which IC50 ([1]; SGC-7901, MTS, t = 48 h, n = 3) is on record?
A: 16.7 ± 0.82 µM

Q: And the IC50 [2, 7]?
A: 10.1 ± 2.38 µM

Q: What about the IC50 [2, 8] of the same compound?
A: 11.5 ± 0.91 µM

Q: And the IC50 [4]?
A: 11.1 ± 0.63 µM

Q: And the “Resistance Index” value [4]?
A: ≈1

Q: What about the Hydrolysis rate (Hydrolysis rate by HPLC) of the same compound?
A: less than 2%

Q: What about the IC50 ([5]; A549, MTS, t = 48 h, n = 3) of the same compound?
A: 15.3 ± 1.12 µM

Q: And the IC50 [6, 9]?
A: 52.1 ± 3.12 µM

Q: Which results are given for `O=C(O)C(Cl)Cl` [DCA, Dichloroacetate]?
A: IC50 ([1]; Homo sapiens, SGC-7901, 48 h): > 200 µM; IC50 ([2]; Homo sapiens, SK-OV-3, 48 h): > 200 µM; IC50 ([5]; Homo sapiens, A549, 48 h): > 200 µM; IC50 ([6]; Homo sapiens, BEAS-2B, 48 h): > 200 µM

Q: Which IC50 ([1]; SGC-7901, MTS, t = 48 h, n = 3) does the source give for `N.NC1CCCC1.O=C1[O][Pt][O]C(=O)C12CC(O)C2` [Complex 1b] here?
A: 56.2 ± 4.88 µM

Q: And the IC50 [2, 8]?
A: 74.2 ± 2.64 µM

Q: And the Solubility in water (Solubility in solvents)?
A: > 25 mg/mL

Q: What about the IC50 ([5]; A549, MTS, t = 48 h, n = 3) of the same compound?
A: 61.5 ± 7.98 µM

Q: And the IC50 [6, 9]?
A: 79.9 ± 2.57 µM

Q: For `N.N.[Cl][Pt][Cl]` [Cisplatin, cisplatin, reference compound], which “Apoptosis, % (mean ± SD)” value (A549 cells; A549, 12.5 μM) is on record?
A: 20.09 ± 3.06%

Q: And the “Apoptosis, % (mean ± SD)” value (A549 cells; A549, 25 μM)?
A: 32.84 ± 5.48%

Q: And the “Apoptosis, % (mean ± SD)” value (A549 cells; A549, 50 μM)?
A: 50.51 ± 6.42%

Q: What about the “Apoptosis, % (mean ± SD)” value (A549 cells; A549, 100 μM) of the same compound?
A: 56.28 ± 6.91%

Q: What about the IC50 ([1]; SGC-7901, MTS, t = 48 h, n = 3) of the same compound?
A: 13.6 ± 1.03 µM

Q: And the IC50 [2, 7]?
A: 5.15 ± 1.38 µM

Q: And the IC50 [2, 8]?
A: 5.04 ± 0.25 µM

Q: And the “Apoptosis, % (mean ± SD)” value ([3]; 12.5 μM)?
A: 2.64 ± 1.43%

Q: What about the “Apoptosis, % (mean ± SD)” value ([3]; 25 μM) of the same compound?
A: 5.86 ± 1.30%

Q: And the “Apoptosis, % (mean ± SD)” value ([3]; 50 μM)?
A: 38.93 ± 5.26%

Q: What about the “Apoptosis, % (mean ± SD)” value ([3]; 100 μM) of the same compound?
A: 42.80 ± 3.40%

Q: And the IC50 [4]?
A: 19.2 ± 0.94 µM

Q: What about the “Resistance Index” value [4] of the same compound?
A: ≈4

Q: And the IC50 ([5]; A549, MTS, t = 48 h, n = 3)?
A: 14.8 ± 1.02 µM

Q: And the IC50 [6, 9]?
A: 11.7 ± 0.51 µM

Q: With `N.N.O=C([O-])C1(C(=O)[O-])CCC1.[Pt+2]` [Carboplatin, carboplatin, reference compound] as the compound, how does the IC50 ([1]; SGC-7901, MTS, t = 48 h, n = 3) read?
A: 127 ± 11.8 µM

Q: And the IC50 [2, 8]?
A: 65.3 ± 3.55 µM

Q: What about the IC50 ([5]; A549, MTS, t = 48 h, n = 3) of the same compound?
A: 141 ± 11.3 µM

Q: What about the IC50 [6, 9] of the same compound?
A: 74.4 ± 2.51 µM
